# Measurements taken from article PMC7117802 (ChemMedChem, 2020).
# Assays:
# [1] = assay type: in vitro ADME, mouse; conditions: 1 μM, 37 °C
# [2] = Stability of DT3-F2 in microsomes over 60 min, normal phase LC-fluorescence; assay type: in vitro ADME, mouse; conditions: 37 °C, no NADPH, fluorescence detection
# [3] = Metabolic stability in mouse liver microsomes with or without NADPH
# [4] = Chemical stability in 15% aqueous NaOH; assay type: physicochemical; conditions: 30 min, data not shown
# in vitro = conditions: mouse, microsomes
# [5] = ref [2]; cited from earlier work
# [6] = Reactivity of model compound 3 with nucleophiles; assay type: physicochemical
# [7] = mouse, 1 μM, pH 7.4
# [8] = pH 7.4, % remaining at 30 min with NADPH
# [9] = pH 7.4, % remaining at 30 min without NADPH
structure (smiles),measurement,setting,value
"C/C(=C\CC/C(C)=C/CC[C@]1(C)CCc2cc(O)cc(C)c2O1)CCC=C(CF)CF [DT3-F2 (1), (R)-2-((3E,7E)-13-Fluoro-12-(fluoromethyl)-4,8-dimethyltrideca-3,7,11-trien-1-yl)-2,8-dimethylchroman-6-ol]",Decrease of compound after incubation with active mouse liver microsomes,"[1]; 10 min, microsomes + buffer, no NADPH",~ 50%
same,"Degradation with mouse liver microsomes + NADPH, compared with microsomes alone","[1]; up to 10 min, NADPH present",More degradation
same,Stability in buffer (PBS) alone,"[1]; up to 10 min, PBS",stable
same,Parent peak after incubation in mouse liver microsomes,[2],no longer detectable
same,Degradation in mouse liver microsomes in the presence of NADPH (in words),"[3]; with NADPH, 30 min",exhausted (below detection limit)
same,Degradation in mouse liver microsomes in the absence of NADPH (in words),"[3]; without NADPH, 30 min",exhausted (below detection limit)
same,Stability when stirred in 15% aqueous NaOH,[4],remained intact
CC(C)NCC(O)COc1cccc2ccccc12 (stereo not drawn) [Propranolol],half-life at 1 μM,in vitro; pH 7.4,0.417 ± 0.16 h
same,"remaining at 0.5 h, 1 μM",in vitro; [8],14.5 ± 10.4%
same,"remaining at 0.5 h, 1 μM",in vitro; [9],107 ± 8.9%
CC(C)=CCC/C(C)=C/CC/C(C)=C/CC[C@]1(C)CCc2cc(O)c(C)c(C)c2O1 [γ-tocotrienol],Plasma elimination half-life,[5],short
"C/C(=C\CS(=O)(=O)c1ccccc1)CCC=C(CF)CF [compound 3, (E)-((8-Fluoro-7-(fluoromethyl)-3-methylocta-2,6-dien-1-yl)sulfonyl) benzene]",Reaction with morpholine in HBD solvents,"[6]; hydrogen-bond donor solvents, 70 °C, Figure S3",able to react
same,Reaction with N-acetyl cysteine (NAC),"[6]; nucleophilic sulfide NAC, Figure S2",No reaction
CC(C)=CCC/C(C)=C/CC/C(C)=C/CC[C@]1(C)CCc2cc(O)cc(C)c2O1 [δ-Tocotrienol],"remaining at 0.5 h, 1 μM",in vitro; [8],63.7 ± 6.7%
same,"remaining at 0.5 h, 1 μM",in vitro; [9],100 ± 6.6%
same,Plasma elimination half-life,[5],short
same,"Clin,u",[7],5240 ± 819.7 µL/min/mg
same,half-life at 1 μM,"[3]; mouse, microsomes, pH 7.4",1.8 ± 0.287 h
